{"source": "patent US20090105149A1", "about": "“Compounds comprising lpa” (ENKAM PHARMACEUTICALS A/S, priority 2003, published 2009)", "key": {"Erk1/2": {"tested_on": "Erk1/2", "assay": "PACE assay, phosphorylation of Erk1/2 in CGN", "format": "cell-based, rat", "procedure": "The total number of neurons was estimated using crystal violet staining. Results from at least three independent experiments are expressed as percentage ±SEM with untreated cultures set at 100%. *p<0.05 and **p<0.01 when compared to the controls.\nDetection of phosphorylated Erk1/2 and Akt relative to the total number of CGN is carried out according to Versteeg et al. (2000) FEBS Lett. 465:69-73. For the experiments CGN were plated at a density of 290,000 cells/cm^2 in poly-L-lysine coated 96-well microtiter plates. […] 24 hours after plating, Ara-C was added to the cultures as described above. After 72 hours of incubation, half of the medium was replaced with Neurobasal-A medium containing the peptide to be tested. For the Erk1/2 phosphorylation assay, the cultures were further incubated for 0-90 minutes, centrifuged at 70 g for 8 minutes, fixed with 4% (v/v) formaldehyde and immunostained using primary phospho-p42-44 rabbit antibodies and peroxidase-conjugated anti-rabbit secondary antibodies. For the detection of phosphorylated Akt, the cultures were further incubated for 10 or 30 minutes, centrifuged at 70 g for 8 minutes, fixed with 4% (v/v) formaldehyde and immunostained using polyclonal antibodies against Akt phosphorylated at Ser473 and peroxidase-conjugated secondary antibodies. […]"}, "[1]": {"tested_on": "rats treated with (25-35) β-amyloid fragment", "assay": "Amyloid burden in brain sections, (25-35) β-amyloid fragment rat model", "format": "in vivo", "settings": "Study 2; sub-occipital 5 μg, days 7, 10, 13; β-amyloid only = 100%", "procedure": "The number of animals in the groups varied from 3 to 13. Results were analysed using one-way ANOVA (F(2,18)=5.2, p=0.016), and significance of results was contingent on achieving a p-value of less than 0.05 (*p<0.05 and **p<0.01), when compared with the A-β/V group (Newman-Keuls posttest).\nThe number of animals in the groups varied from 2 to 12. Results were analysed using one-way ANOVA (F(2,15)=9.54, p=0.002), and significance of results was contingent on achieving a p-value of less than 0.05 (***p<0.001), when compared with the A-β/V group (Newman-Keuls posttest).\nThe number of animals per group varied from 3 to 13. The results were analysed using one-way ANOVA (F(2,12)=18.6, P=0.002) and significance of results was contingent on achieving a p-value of less than 0.05 (***p<0.001) when compared with the A-β/V group (Bonferroni's multiple comparison test).\nThe number of animals per group varied from 3 to 5. The results were analysed using one-way ANOVA (F(2,9)=10.6, P=0.004) and significance of results was contingent on achieving a p-value of less than 0.05 (***p<0.001) when compared with the A-β/V group (Newman-Keuls post-test).\nBehaviour of animals was evaluated using the Social Recognition test, the Open Field test or the Light-dark Discriminating γ-maze. […] In addition, the number of neurons in selected areas of brain-sections was calculated using a stereological approach."}, "[2]": {"tested_on": "rats treated with (25-35) β-amyloid fragment", "assay": "Neuronal density / cell death in brain sections, (25-35) β-amyloid fragment rat model", "format": "in vivo", "settings": "days 7, 10, 13", "procedure": "The effect of 5.0 μg FGL per administration per rat, administered sub-occipitally on days 7, 10 and 13 after (25-35) β-amyloid (A-β) fragment-induced toxicity, on neuronal cell death in the CA3 zone of the rat hippocampus. The number of animals in the groups varied from 4 to 8.\n(§1) The number of animals in the groups varied from 4 to 8.\nas §1\nBehaviour of animals was evaluated using the Social Recognition test, the Open Field test or the Light-dark Discriminating γ-maze. On day 28-30 or day 51 after i.c.v. administration of the (25-35) β-amyloid fragment, the animals were sacrificed, and in selected studies, the brain tissue was collected, histological sections were immunostained with A-β specific antibodies and the amyloid-burden was calculated as a percentage of the A-βpositive area. In addition, the number of neurons in selected areas of brain-sections was calculated using a stereological approach."}}}
{"substance": "FGLd: MAP-type dendrimer of FGL; dendrimeric tetramer of the FGL peptide (EVYVVAENQQGKSKA)", "values": [{"measurement": "phosphorylation of Erk1/2", "setting": "Erk1/2; 5 μg/ml", "result": "unable to induce phosphorylation of Erk1/2"}, {"measurement": "phosphorylation of Erk1/2", "setting": "Erk1/2; 10 μg/ml, from 10 to at least 90 minutes, control cultures = 100%", "result": "115-120%"}, {"measurement": "amyloid burden in the CA3 area of the hippocampus", "setting": "[1]", "result": 44, "unit": "%"}, {"measurement": "amyloid burden in the cingulate cortex", "setting": "[1]", "result": 42, "unit": "%"}, {"measurement": "neuro-histopathology evaluation of the CA3 area of hippocampus", "setting": "[2]; Study 1, sub-occipital", "result": "no significant effect"}, {"measurement": "density of neurons in the CA3 zone of the hippocampus", "setting": "[2]; Study 2, sub-occipital 5 μg, β-amyloid only 15", "result": 22, "unit": "neurons/mcm^2×10^−4"}]}
